In brackets after ≈: the same amount, converted by molar mass.
Assay: Solubility in water of the cyclodextrin derivatives
Format: physicochemical

| SMILES | solubility [mg/mL] |
| --- | --- |
| NC(CCC(=O)NC[C@H]1O[C@@H]2O[C@H]3[C@H](O)[C@@H](O)[C@@H](O[C@H]4[C@H](O)[C@@H](O)[C@@H](O[C@H]5[C@H](O)[C@@H](O)[C@@H](O[C@H]6[C@H](O)[C@@H](O)[C@@H](O[C@H]7[C@H](O)[C@@H](O)[C@@H](O[C@H]8[C@H](O)[C@@H](O)[C@@H](O[C@H]1[C@H](O)[C@H]2O)O[C@@H]8CO)O[C@@H]7CO)O[C@@H]6CO)O[C@@H]5CO)O[C@@H]4CO)O[C@@H]3CO)C(=O)O (stereo partly drawn) [Example 1(b), mono[N-(4-amino-4-carboxybutyryl)amino]-6-deoxy-β-cyclodextrin] | > 1000 |
| NC(CC(=O)NC[C@H]1O[C@@H]2O[C@H]3[C@H](O)[C@@H](O)[C@@H](O[C@H]4[C@H](O)[C@@H](O)[C@@H](O[C@H]5[C@H](O)[C@@H](O)[C@@H](O[C@H]6[C@H](O)[C@@H](O)[C@@H](O[C@H]7[C@H](O)[C@@H](O)[C@@H](O[C@H]8[C@H](O)[C@@H](O)[C@@H](O[C@H]1[C@H](O)[C@H]2O)O[C@@H]8CO)O[C@@H]7CO)O[C@@H]6CO)O[C@@H]5CO)O[C@@H]4CO)O[C@@H]3CO)C(=O)O (stereo partly drawn) [Example 2(b), mono[N-(3-amino 3-carboxypropionyl)amino]-6-deoxy-β-cyclodextrin] | > 1000 |
| NC(Cc1ccc(OCC(=O)NC[C@H]2O[C@@H]3O[C@H]4[C@H](O)[C@@H](O)[C@@H](O[C@H]5[C@H](O)[C@@H](O)[C@@H](O[C@H]6[C@H](O)[C@@H](O)[C@@H](O[C@H]7[C@H](O)[C@@H](O)[C@@H](O[C@H]8[C@H](O)[C@@H](O)[C@@H](O[C@H]9[C@H](O)[C@@H](O)[C@@H](O[C@H]2[C@H](O)[C@H]3O)O[C@@H]9CO)O[C@@H]8CO)O[C@@H]7CO)O[C@@H]6CO)O[C@@H]5CO)O[C@@H]4CO)cc1)C(=O)O (stereo partly drawn) [Example 3, mono [N-4-(2'-amino 2'-carboxy ethyl) 1-(phenyloxymethylcarbonyl)amino]6-deoxy β-cyclodextrin] | 900 (≈ 664 mM) |

Source: patent US5631244A, “mono(6-amino-6-deoxy)cyclodextrin derivatives substituted in the 6-position by an α-amino acid residue, process for their preparation and their uses” (L'Oreal, priority 1993, dated 1997)
